Key:
[1] = system: Human smooth muscle cells (SMC); assay: Proliferation of human smooth muscle cell cultures treated with rhodamine 123 and/or FDG; assay type: cell-based
Protocol: Human smooth muscle cells (SMC) were treated with rhodamine 123 and/or with FDG.
Three levels of Rhodamine 123 concentration were used first: 0.05, 1 and 2.5 mg/ml.
A combined composition of FDG and Rhodamine at various dosages were evaluated on the same human SMC cultures. The doses (FDG/rhodamine in mg/ml) were as follows: […]

[2] = Maximal tolerated dose of Rhodamine 123 delivered intra-venously in man; assay type: in vivo; settings: 70 kg patient
Protocol: Because inhibitors of oxidative phorphorylation are extremely toxic to a subject in the doses needed for efficacy via the systemic route, such inhibitors have been largely overlooked for effective treatment of conditions such as cancer. […] It is also known that the maximal tolerated dose of Rhodamine 123 delivered intra-venously in man is 95 mg/m^2. For a 70 kg patient, the maximum dose of systemically delivered rhodamine is about 150 mg. […] There was an accumulation of rhodamine in the prostate of the patients, but it was not sufficient to provoke a significant response.

prostate tumours = settings: maximum non-lethal systemic dose, cited from earlier work

rhodamine 123
concentration enough to stop smooth muscle cell proliferation [1]: 5 µg/mL | proliferation rates of SMC compared to non rhodamine treated cells ([1]; Rhodamine 123 0.05 mg/ml): 90+21.6% | proliferation rates of SMC compared to non rhodamine treated cells ([1]; Rhodamine 123 1 mg/ml): 51.2 ± 10.7% | proliferation rates of SMC compared to non rhodamine treated cells ([1]; Rhodamine 123 2.5 mg/ml): 7.3 ± 5.1% | SMC proliferation ([1]; higher rhodamine concentrations (above 2.5 mg/ml)): totally suppressed | maximum dose of systemically delivered rhodamine [2]: about 150 mg | effect on prostate tumours (prostate tumours): no useful effect | rhodamine in the prostate of the patients (prostate tumours; not sufficient to provoke a significant response): accumulation
